What was measured:
Russet Burbank potatoes = experiment: Sprout inhibition of stored Russet Burbank potatoes (second trial, 46 degrees F.), thermal fogs and liquid sprays; format: in vivo, Solanum tuberosum
Source text: (§1) The storage system was designed to duplicate a large commercial storage facility in miniature. Drums containing 150-200 pounds of potatoes were sealed and housed in a building in which temperature was maintained throughout the testing period at 54 degrees F. for the first summer trial with Norkotah potatoes and 46 degrees F. for the Russet Burbank potatoes in the second trial. During both trials the humidity was maintained at […]. Formed in each drum is an inlet in which untreated air (ventilation air) was introduced under a perforated floor to the drum. The ventilation air moves through the pile of potatoes and is exhausted from the top of the drum to the outside of the building.
(§2) This storage ventilation was shut down for a 24 hour duration during and directly after the treatment of the chemicals. Then it is maintained for the duration of the trial, with ventilation air forced through the drums at a rate of 0.5 cubic feet per minute on a three-hour on and a three-hour off schedule.
(§3) In the spray application technique the formulations were mixed with water and sprayed on the newly harvested tubers at a rate of 5 and 10 parts per million (weight of the active to weight of the potatoes) mixed in a water carrier. The mixture was applied at 1 quart per ton of potatoes. The spray was applied via a hand held spray gun propelled with compressed air as the tubers were rotating in a cement mixer drum. This insured that all surface area is coated with the active ingredient.
(§4) The custom thermal fogger's heat source was an electric hot plate set at 500 degrees F. This temperature is monitored throughout the application with a thermal couple that is inserted in a cavity just below the surface where the chemical is placed. A chamber was attached to the hot plate. A fan was mounted to the top of the chamber. The fogger was attached to the storage container with flexible tubing.
(§5) The fog was delivered to each drum through separate ports. Through the bottom port of the storage drum a perforated stinger was installed that runs the length of the drum. Flexible tubing delivered the fog air mixture from the fogger. The fog air mixture was returned to the thermal fogger through a second flexible tubing that was attached from the top of the storage drum to the bottom of the thermal fogger. The air fog mixture was re-circulated through the system for five minutes.
Russet Burbank potatoes were selected for the second trial. The Russet Burbank is noted for its long term storability and is one of the most popular cultivars used for storage as it can be used as both a fresh pack potato and also has very desirable processing qualities.
(§6) The potatoes were monitored for sprout activity on a regular basis after treatment. When early sprout activity was observed the potatoes were first evaluated. Then at approximately 30 day intervals, 60 tubers were randomly selected from each treatment. Each tuber was rated for the length of the longest sprout on each tuber. The scale used for the rating system as is follows: • 0—Not Peeping=no sprout or swelling of eye tissue evident. • 1—Peeping=swelling of eye tissue up to a sprout length of 3 mm • 2—sprout length from 3 mm to 1 cm. • 3—sprout length from 1 cm to 3 cm. • 4—sprout length from 3 cm to 5 cm. • 5—sprout length from 5 cm and longer
(§7) Results of each set of 60 tubers were recorded into 6 subsets of 10 tubers each (replicates). Each set is summarized as a percent. The data is also summarized into AVERAGE SPROUT LENGTH and PERCENT OK RE: FRESHPCK (Fresh pack).
(§8) The PERCENT OK RE: FRESHPCK is the percent of the tubers that are NOT PEEPING and PEEPING categories combined together.
(§9) The MCPP spray was a MCPP potassium salt providing 2.5 pounds active ingredient per gallon of inert ingredients (water/coformulants). […]

Russet Norkotah potatoes = experiment: Sprout inhibition of stored Russet Norkotah potatoes (first trial, 54 degrees F.); format: in vivo, Solanum tuberosum
Source text: as §1, §2, §3
All of the treatments in the reported test on Russet Norkotah used this technique with the exception of Untreated and CIPC A (CIPC 98A) that was thermal fogged.
as §4, §5
Russet Norkotah potatoes were selected for the first trial for their short natural dormancy and aggressive sprouting.
as §6, §7, §8, §9

[1] = Concentration analysis: amounts recovered on the whole potato; conditions: thermal fog application
Source text: Much better results were obtained with the spray applications compared to the thermal fog applications of MCPP, believed to be due to the fact that we established a higher concentration on the tuber via spray.
For example, for spray and thermal fog application, amounts recovered on the whole potato approximately four months later were as follows: MCPP10 ppm applied via thermal fog=0.038 ppm MCPP10 ppm applied via liquid spray=6.3 ppm

[2] = 5 ppm Fog, 132 days after harvest
[3] = 5 ppm Fog, 161 days after harvest
[4] = 5 ppm Fog, 191 days after harvest
[5] = 5 ppm Fog, 223 days after harvest
[6] = 5 ppm Fog, 252 days after harvest
[7] = 5 ppm Fog, 283 days after harvest
[8] = 5 ppm Spray, 132 days after harvest
[9] = 5 ppm Spray, 161 days after harvest
[10] = 5 ppm Spray, 191 days after harvest
[11] = 5 ppm Spray, 223 days after harvest
[12] = 5 ppm Spray, 252 days after harvest
[13] = 5 ppm Spray, 283 days after harvest
[14] = 11 ppm Fog, 132 days after harvest
[15] = 11 ppm Fog, 161 days after harvest
[16] = 11 ppm Fog, 191 days after harvest
[17] = 11 ppm Fog, 223 days after harvest
[18] = 11 ppm Fog, 252 days after harvest
[19] = 11 ppm Fog, 283 days after harvest

Compound | % OK For Fresh Pack Dormant + sprout up to 3 mm (Russet Burbank potatoes; [2]) [%] | % OK For Fresh Pack Dormant + sprout up to 3 mm (Russet Burbank potatoes; [3]) [%] | % OK For Fresh Pack Dormant + sprout up to 3 mm (Russet Burbank potatoes; [4]) [%] | % OK For Fresh Pack Dormant + sprout up to 3 mm (Russet Burbank potatoes; [5]) [%] | % OK For Fresh Pack Dormant + sprout up to 3 mm (Russet Burbank potatoes; [6]) [%] | % OK For Fresh Pack Dormant + sprout up to 3 mm (Russet Burbank potatoes; [7]) [%] | % OK For Fresh Pack Dormant + sprout up to 3 mm (Russet Burbank potatoes; [8]) [%] | % OK For Fresh Pack Dormant + sprout up to 3 mm (Russet Burbank potatoes; [9]) [%] | % OK For Fresh Pack Dormant + sprout up to 3 mm (Russet Burbank potatoes; [10]) [%] | % OK For Fresh Pack Dormant + sprout up to 3 mm (Russet Burbank potatoes; [11]) [%] | % OK For Fresh Pack Dormant + sprout up to 3 mm (Russet Burbank potatoes; [12]) [%] | % OK For Fresh Pack Dormant + sprout up to 3 mm (Russet Burbank potatoes; [13]) [%] | % OK for Fresh Pack Dormant + sprout up to 3 mm (Russet Norkotah potatoes; 5 ppm Spray, 53 DAH) [%] | % OK for Fresh Pack Dormant + sprout up to 3 mm (Russet Norkotah potatoes; 5 ppm Spray, 85 DAH) [%] | % OK for Fresh Pack Dormant + sprout up to 3 mm (Russet Norkotah potatoes; 5 ppm Spray, 107 DAH) [%] | % OK for Fresh Pack Dormant + sprout up to 3 mm (Russet Norkotah potatoes; 10 ppm Spray, 53 DAH) [%] | % OK for Fresh Pack Dormant + sprout up to 3 mm (Russet Norkotah potatoes; 10 ppm Spray, 85 DAH) [%] | % OK for Fresh Pack Dormant + sprout up to 3 mm (Russet Norkotah potatoes; 10 ppm Spray, 107 DAH) [%] | % OK For Fresh Pack Dormant + sprout up to 3 mm (Russet Burbank potatoes; [14]) [%] | % OK For Fresh Pack Dormant + sprout up to 3 mm (Russet Burbank potatoes; [15]) [%] | further results
O=C(O)COc1ccc(Cl)cc1Cl [2,4 D Acid, (2,4-(dichlorophenoxy)-acetic acid, reference compound] | 100.0 | 16.7 | 0.0 | 0.0 | 0.0 | 0.0 | – | – | – | – | – | – | – | – | – | – | – | – | – | – | –
CCCCC(CC)COC(=O)COc1ccc(Cl)cc1Cl (stereo not shown) [2,4 D LV, Isooctyl (2-ethylhexyl) ester of 2,4-Dichlorphenoxyacetic acid] | – | – | – | – | – | – | 96.7 | 30.0 | 8.3 | 0.0 | 0.0 | 0.0 | – | – | – | – | – | – | – | – | –
O=C(O)CCCOc1ccc(Cl)cc1Cl [2,4 DB] | – | – | – | – | – | – | – | – | – | – | – | – | 81.7 | 3.3 | 0.0 | 91.7 | 11.7 | 0.0 | – | – | –
CC(C)OC(=O)Nc1cccc(Cl)c1 [CIPC 98A, isopropyl 3-chlorophenylcarbamate, reference compound] | – | – | – | – | – | – | – | – | – | – | – | – | – | – | – | – | – | – | 100.0 | 26.7 | % OK For Fresh Pack Dormant + sprout up to 3 mm (Russet Burbank potatoes; [16]): 0.0%; % OK For Fresh Pack Dormant + sprout up to 3 mm (Russet Burbank potatoes; [17]): 0.0%; % OK For Fresh Pack Dormant + sprout up to 3 mm (Russet Burbank potatoes; [18]): 0.0%; % OK For Fresh Pack Dormant + sprout up to 3 mm (Russet Burbank potatoes; [19]): 0.0%; % OK For Fresh Pack Dormant + sprout up to 3 mm (Russet Burbank potatoes; 16.6 ppm Fog, 132 days after harvest): 100.0%; % OK For Fresh Pack Dormant + sprout up to 3 mm (Russet Burbank potatoes; 16.6 ppm Fog, 161 days after harvest): 26.7%; % OK For Fresh Pack Dormant + sprout up to 3 mm (Russet Burbank potatoes; 16.6 ppm Fog, 191 days after harvest): 0.0%; % OK For Fresh Pack Dormant + sprout up to 3 mm (Russet Burbank potatoes; 16.6 ppm Fog, 223 days after harvest): 0.0%; % OK For Fresh Pack Dormant + sprout up to 3 mm (Russet Burbank potatoes; 16.6 ppm Fog, 252 days after harvest): 0.0%; % OK For Fresh Pack Dormant + sprout up to 3 mm (Russet Burbank potatoes; 16.6 ppm Fog, 283 days after harvest): 0.0%; % OK for Fresh Pack Dormant + sprout up to 3 mm (Russet Norkotah potatoes; 16.6 ppm Fog, 53 DAH): 100.0%; % OK for Fresh Pack Dormant + sprout up to 3 mm (Russet Norkotah potatoes; 16.6 ppm Fog, 85 DAH): 86.7%; % OK for Fresh Pack Dormant + sprout up to 3 mm (Russet Norkotah potatoes; 16.6 ppm Fog, 107 DAH): 86.7%
Cc1cc(Cl)ccc1OC(C)C(=O)O (stereo not shown) [MCPP, 2-(4-Chloro-2-methylphenoxy)propanoic acid] | 93.3 | 3.3 | 0.0 | 0.0 | 0.0 | 0.0 | 100.0 | 95.0 | 73.3 | 38.3 | 6.7 | 5.0 | 98.3 | 53.3 | 1.7 | 100.0 | 71.7 | 25.0 | – | – | stability when exposed to heat [1]: break down rapidly when exposed to heat; % OK For Fresh Pack Dormant + sprout up to 3 mm (Russet Burbank potatoes; 10 ppm Fog, 132 days after harvest): 100.0%; % OK For Fresh Pack Dormant + sprout up to 3 mm (Russet Burbank potatoes; 10 ppm Fog, 161 days after harvest): 15.0%; % OK For Fresh Pack Dormant + sprout up to 3 mm (Russet Burbank potatoes; 10 ppm Fog, 191 days after harvest): 0.0%; % OK For Fresh Pack Dormant + sprout up to 3 mm (Russet Burbank potatoes; 10 ppm Fog, 223 days after harvest): 0.0%; % OK For Fresh Pack Dormant + sprout up to 3 mm (Russet Burbank potatoes; 10 ppm Fog, 252 days after harvest): 0.0%; % OK For Fresh Pack Dormant + sprout up to 3 mm (Russet Burbank potatoes; 10 ppm Fog, 283 days after harvest): 0.0%; % OK For Fresh Pack Dormant + sprout up to 3 mm (Russet Burbank potatoes; 10 ppm Spray, 132 days after harvest): 100.0%; % OK For Fresh Pack Dormant + sprout up to 3 mm (Russet Burbank potatoes; 10 ppm Spray, 161 days after harvest): 100.0%; % OK For Fresh Pack Dormant + sprout up to 3 mm (Russet Burbank potatoes; 10 ppm Spray, 191 days after harvest): 90.0%; % OK For Fresh Pack Dormant + sprout up to 3 mm (Russet Burbank potatoes; 10 ppm Spray, 223 days after harvest): 65.0%; % OK For Fresh Pack Dormant + sprout up to 3 mm (Russet Burbank potatoes; 10 ppm Spray, 252 days after harvest): 20.0%; % OK For Fresh Pack Dormant + sprout up to 3 mm (Russet Burbank potatoes; 10 ppm Spray, 283 days after harvest): 10.0%
Diisopropylnaphthalene [DIPN, reference compound] | – | – | – | – | – | – | – | – | – | – | – | – | – | – | – | – | – | – | 56.7 | 15 | % OK For Fresh Pack Dormant + sprout up to 3 mm (Russet Burbank potatoes; [16]): 0%; % OK For Fresh Pack Dormant + sprout up to 3 mm (Russet Burbank potatoes; [17]): 0%; % OK For Fresh Pack Dormant + sprout up to 3 mm (Russet Burbank potatoes; [18]): 0%; % OK For Fresh Pack Dormant + sprout up to 3 mm (Russet Burbank potatoes; [19]): 0%
